Data published in patent US20110038829A1, “METHODS AND MATERIALS FOR TREATING DIARRHEA” (MAYO FOUNDATION FOR MEDICAL EDUCATION AND RESEARCH, priority 2009, published 2011).

Assays:
healthy volunteers [1] = test: Scintigraphic gastrointestinal and colonic transit, CDC study; assay type: in vivo, human; conditions: for AC t1/2 (ascending colon emptying) / CF 6 (colonic filling at 6 hours) / GC 4 (colonic geometric center) / GC 24 (colonic geometric center at 24 hours) / GC 48 (colonic geometric center at 48 hours) / GE t1/2: N = 20, mean ± SEM
Description: A double-blind, placebo-controlled, parallel-group, randomized study was conducted to evaluate the effects of oral sodium chenodeoxycholate (CDC) or placebo, once daily for 4 days, in healthy volunteers. In a second trial, oral colesevelam hydrochloride or placebo were administered for 12-14 days in patients with diarrhea-predominant irritable bowel syndrome (IBS-D). The study was approved by a review board and all participants signed informed consent. In both studies, allocation was concealed from the study investigators. In the first trial, participants were randomized to placebo, CDC 500 mg, or 1000 mg (20 per group). Sodium CDC (unconjugated) was purchased from Calbiochem (EMD Biosciences Inc., San Diego, Calif. 92121), and the Mayo pharmacy prepared identical placebo and CDC capsules, all of which were coated with the pH sensitive polymer, methacrylate (Eudragit® S-100, Rohm Pharmaceuticals, Darmstadt D-64293, Germany). The latter dissolves at the neutral pH found in the distal ileum and was used to ensure ileocolonic delivery of the CDC or placebo. All participants were screened for idiopathic bile acid malabsorption (BAM) with fasting serum 7alpha-hydroxy-4-cholesten-3-one (7αC4). 60 patients (mean age 38.7 years, 43 female) were enrolled to the study. Three groups (n=20 each) were randomized to one oral capsule daily containing placebo, 500 mg, or 1000 mg CDC, each for a period of 4 days. Gastrointestinal (GI) and colonic transit was conducted by a scintigraphic method (Burton et al., J. Nucl. Med., 38:1807-1810 (1997) and Cremonini et al., Aliment Pharmacol. Ther., 16:1781-1790 (2002)) during the last 48 hours of drug ingestion. An adaptation of an established scintigraphic method was used to measure gastrointestinal and colonic transit (Burton et al., J. Nucl. Med., 38:1807-1810 (1997) and Cremonini et al., Aliment Pharmacol. Ther., 16:1781-1790 (2002)). Patients with IBS-D had baseline measurement of colonic transit since this is known to be a significant covariate in treatment responses. The primary endpoints were the colonic geometric center (GC) at 24 hours (GC 24) and ascending colon (AC) emptying t1/2. […] The capsule was ingested following an overnight fast. After the capsule emptied from the stomach, a 99 mTc-sulfur colloid radiolabeled meal was ingested. It consisted of two scrambled eggs, one slice of whole wheat bread, and one glass of whole milk. This meal allowed measurement of gastric and small bowel transit. Subjects ingested standardized meals for lunch and dinner at 4 and 8 hours after the radiolabeled meal, respectively. Abdominal scans were obtained every hour for the first 6 hours (the first 4 hours for the assessment of gastric emptying) and at 8, 24, and 48 hours after ingestion of the ^111In capsule. The counts in the stomach and each of four colonic regions, ascending, transverse, descending, and combined sigmoid and rectum, were quantitated with a variable region of interest program. Counts were corrected for isotope decay, tissue attenuation, and downscatter of ^111In counts in the 99 mTc window. Gastric emptying t1/2 is a measure of the time for 50% of the radiolabeled meal (identifiable by radiolabeled tracer) to empty from the stomach. Colonic filling at 6 hours, or the proportion of the radiolabeled meal to have reached the colon at 6 hours, is an indirect measurement of small bowel transit time. Overall colonic transit was summarized as the colonic geometric center (GC) at specified times. The GC is the weighted average of counts in the different colonic regions (ascending (AC), transverse (TC), descending (DC), rectosigmoid (RS)) and stool, respectively 1 to 5. At any time, the proportion of counts in each colonic region is multiplied by its weighting factor as follows: (%AC×1+%TC×2+%DC×3+%RS×4+%stool×5)/100=GC Thus, a higher GC reflects a faster colonic transit. Ascending colon emptying was summarized by the t1/2 calculated by linear interpolation of values on the AC emptying curve.

healthy volunteers [2] = test: Daily stool diaries (bowel function), CDC study; assay type: in vivo, human; conditions: for Ease of passage (scale1-7) / Stool consistency by Bristol Stool Form Scale / Stool frequency per day: N = 20, mean ± SEM
Description: 60 patients (mean age 38.7 years, 43 female) were enrolled to the study. Three groups (n=20 each) were randomized to one oral capsule daily containing placebo, 500 mg, or 1000 mg CDC, each for a period of 4 days. Gastrointestinal (GI) and colonic transit was conducted by a scintigraphic method (Burton et al., J. Nucl. Med., 38:1807-1810 (1997) and Cremonini et al., Aliment Pharmacol. Ther., 16:1781-1790 (2002)) during the last 48 hours of drug ingestion. All participants completed bowel function diaries that documented the time of each bowel movement, stool consistency (Bristol Stool Form Scale), the ease of passage (ranging from 1=“manual disimpaction” to 7=“incontinence”), and completeness of evacuation (1=“yes” and 0=“no”). In the first study, patients recorded diaries during at least 3 days of the baseline period and the 4 days of treatment. The diaries were recorded for at least 3 days of the baseline period and during the entire treatment period of the second study.

healthy volunteers [3] = test system: healthy volunteers; set-up: species or system human; conditions: in vivo
Description: An independent statistician, who otherwise was not involved in the study, generated the randomization codes, and the allocation was concealed. All clinical and laboratory study personnel were blinded throughout the study until all data were locked and analyzed. Clinical safety monitoring was conducted by the study investigators throughout the study. 60 patients (mean age 38.7 years, 43 female) were enrolled to the study. Three groups (n=20 each) were randomized to one oral capsule daily containing placebo, 500 mg, or 1000 mg CDC, each for a period of 4 days. Gastrointestinal (GI) and colonic transit was conducted by a scintigraphic method (Burton et al., J. Nucl. Med., 38:1807-1810 (1997) and Cremonini et al., Aliment Pharmacol. Ther., 16:1781-1790 (2002)) during the last 48 hours of drug ingestion.

[4] = CDC 500 mg once daily for 4 days
[5] = CDC 1000 mg once daily for 4 days

Question: `C[C@H](CCC(=O)[O-])[C@H]1CC[C@H]2[C@@H]3[C@H](O)C[C@@H]4C[C@H](O)CC[C@]4(C)[C@H]3CC[C@]12C.[Na+]` [CDC, sodium chenodeoxycholate] was tested. Which “AC t1/2 (ascending colon emptying)” value (healthy volunteers [1]; [4]) did it give?
Answer: 12.1 ± 2.1 h

Question: What about the “CF 6 (colonic filling at 6 hours)” value (healthy volunteers [1]; [4]) of the same molecule?
Answer: 49.6 ± 7.0%

Question: What about the “GC 4 (colonic geometric center)” value (healthy volunteers [1]; [4]) of the same molecule?
Answer: 0.87 ± 0.18

Question: And the “GC 24 (colonic geometric center at 24 hours)” value (healthy volunteers [1]; [4])?
Answer: 2.80 ± 0.27

Question: And the “GC 48 (colonic geometric center at 48 hours)” value (healthy volunteers [1]; [4])?
Answer: 4.10 ± 0.21

Question: What about the “GE t1/2” value (healthy volunteers [1]; [4]) of the same molecule?
Answer: 2.115 ± 0.0883 h

Question: What about the “Treatment effect on colonic filling at 6 hours (in words)” value (healthy volunteers [1]; CDC 500 mg or 1000 mg vs placebo) of the same molecule?
Answer: not detected

Question: What about the “AC t1/2 (ascending colon emptying)” value (healthy volunteers [1]; [5]) of the same molecule?
Answer: 10.7 ± 1.9 h

Question: And the “CF 6 (colonic filling at 6 hours)” value (healthy volunteers [1]; [5])?
Answer: 46.0 ± 7.1%

Question: And the “GC 4 (colonic geometric center)” value (healthy volunteers [1]; [5])?
Answer: 1.27 ± 0.33

Question: What about the “GC 24 (colonic geometric center at 24 hours)” value (healthy volunteers [1]; [5]) of the same molecule?
Answer: 3.76 ± 0.30

Question: And the “GC 48 (colonic geometric center at 48 hours)” value (healthy volunteers [1]; [5])?
Answer: 4.92 ± 0.05

Question: And the “GE t1/2” value (healthy volunteers [1]; [5])?
Answer: 2.383 ± 0.235 h

Question: And the “Effect on colonic transit (GC) at 24 and 48 hours (in words)” value (healthy volunteers [1]; FIG. 3, 1000 mg p<0.0001, 500 mg p<0.01 vs placebo)?
Answer: overall acceleration of colonic transit

Question: And the “Ease of passage (scale1-7)” value (healthy volunteers [2]; [4])?
Answer: 4.1 ± 0.06

Question: What about the “Stool consistency by Bristol Stool Form Scale” value (healthy volunteers [2]; [4]) of the same molecule?
Answer: 4.29 ± 0.19

Question: What about the “Stool frequency per day” value (healthy volunteers [2]; [4]) of the same molecule?
Answer: 1.50 ± 0.18 per day

Question: And the “Effect on sense of complete evacuation (in words)” value (healthy volunteers [2]; CDC 500 mg or 1000 mg vs placebo, p=0.02)?
Answer: significant overall treatment effects

Question: And the “Ease of passage (scale1-7)” value (healthy volunteers [2]; [5])?
Answer: 4.3 ± 0.06

Question: And the “Stool consistency by Bristol Stool Form Scale” value (healthy volunteers [2]; [5])?
Answer: 4.80 ± 0.15

Question: What about the “Stool frequency per day” value (healthy volunteers [2]; [5]) of the same molecule?
Answer: 2.01 ± 0.15 per day

Question: And the “Effect on stool form/consistency (in words)” value (healthy volunteers [2]; FIG. 3, p<0.0001)?
Answer: more liquid consistency stool

Question: What about the “Effect on stool frequency (in words)” value (healthy volunteers [2]; FIG. 3, p<0.001) of the same molecule?
Answer: increase in stool frequency

Question: What about the “Adverse event: headache, rate” value (healthy volunteers [3]) of the same molecule?
Answer: 20-25%

Question: And the “Adverse events: gas, bloating and nausea, participants” value (healthy volunteers [3])?
Answer: 5-20%
